The source of these data is patent publication EP1701623B1, “METHODS FOR WASHING POULTRY DURING PROCESSING WITH MEDIUM CHAIN PEROXYCARBOXYLIC ACID COMPOSITIONS” (ECOLAB INC., priority 2004, dated 2005).

Assay [1] deals with Bacterial Spores. Briefly: Antimicrobial activity against bacterial spores versus conventional compositions. The class given is cell-based. The following applies: 0.5 min, pH 3.32, 35%. As for the experimental part:
(§1) Antimicrobial activity was determined according to two well established methods. The first method was the procedure set out in Germicidal and Detergent Sanitizing Action of Disinfectants, Official Methods of Analysis of the Association of Official Analytical Chemists, paragraph 960.09 and applicable sections, 15th Edition, 1990 (EPA Guideline 91-2). The second method was the procedure described in A.O.A.C. Use Dilution Methods, Official Methods of Analysis of the Association of Official Analytical Chemists, paragraph 955.14 and applicable sections, 15th Edition, 1990 (EPA Guideline 91-2). Briefly, antimicrobial activity of the present compositions was determined by exposing a one mL aliquot containing the target microorganism to 99 mL of the desired concentration of the test substance at the desired temperature. After the specified contact time, one mL of the test solution containing the microorganism was neutralized and enumerated for survivors.

Assay [2] concerns S. aureus. Briefly: Antimicrobial activity, AOAC sanitizing/use dilution suspension test. The class given is cell-based. The settings on record: Staphylococcus aureus. As for the experimental part: as §1

Molecules are shown by their SMILES. Where only a bound is given, the exact number is not on record here.

On to `OO` [Composition H2O2, hydrogen peroxide], for which the log reduction at 35 % is 1.19 in assay [1] (40 °C, 30 sec); 2.94 in assay [1] (40 °C, 60 sec); more than 6.3 in assay [1] (40 °C, 120 sec); 1.59 in assay [1] (60 °C, 10 sec); 4.85 in assay [1] (60 °C, 20 sec); 4.89 in assay [1] (60 °C, 30 sec). Moreover, the log reduction at 35 % is more than 6.3 in assay [1] (80 °C, 10 sec); more than 6.3 in assay [1] (80 °C, 20 sec); more than 6.3 in assay [1] (80 °C, 30 sec).
`CCCCCCCC(=O)OO` [Pure POOA Crystals, peroxyoctanoic acid]: in assay [2] (concentration of 5 ppm and pH of ∼5, Table 25, read-out: log reductions of Staphylococcus aureus), the log reduction at 5 µg/mL is 5. Moreover, the log reduction at 11 µg/mL in assay [2] (pH 6.1, pH of 6.1, 11 ppm of peroxyoctanoic acid (POOA), Table 13 (composition K), read-out: reducing S. aureus) is more than 7.04.
